# Test results published in publication PMC3115942 (PLoS ONE, 2011).
# “Also recorded” adds a separate entry of the source.
# Key:
# [1] = tested on: Gli1 mRNA expression in Ptch−/− MEF; assay: Real time PCR of Gli1 mRNA in Ptch−/− MEF; format: cell-based, mouse; conditions: 5 µM, 48 hours
# Description: (§1) Cells were lysed for RNA extraction after 48 or 72 hours of treatment. Total RNA from cultured cells or tumor tissue was isolated using the GeneElute miniprep kit (Sigma-Aldritch) following the manufacturer^'s instructions. cDNA was synthesized from the isolated mRNA using the Retroscript kit (Ambion), and real-time PCR was carried out using the SYBR Green PCR master mix (Stratagene) according to the manufacturer^'s instructions with an Mx3000P cycler (Stratagene). The relative concentrations of cDNA present in each sample were calculated by the MxPro software (Stratagene), normalized for GAPDH (mRNA from cells) or GUS (mRNA from tumors). For real time PCR primer sequences see Table 6. For the tumor tissue real time PCR, previously described human and mouse specific primers against GUSB, PTCH1 and GLI1were used.
# [2] = tested on: GLI1 mRNA in PANC-1 cells; assay: Real time PCR of GLI1 mRNA in PANC-1; format: cell-based, human; conditions: 5 µM, 48 hrs
# Description: as §1
# [3] = tested on: PANC-1 cells; assay: In vitro antiproliferative assay (MTS), PANC-1; format: cell-based, human; conditions: 5 µM, 4 day
# Description: Cells were plated at a density of 3000 (THLE-2 and PC-3) and 1000 (PANC-1, SUIT-2 and FEMX) cells per well (on the basis of their growth rate) in 200 µl of medium in a 96-well plate. Medium was changed daily, and after four days, the assay was read using a MTS kit (Promega) according to the instructions of the manufacturer. Graphs display average of percent growth with standard deviation (n = 8).
# [4] = tested on: PANC-1 cells; assay: Soft agar colony formation assay, PANC-1; format: cell-based, human; conditions: 21 days
# Description: (§2) 2000 PANC-1 or SUIT-2 cells were suspended in 1.5 mL growth media containing 0.35% agar (Oxoid), over a 1.5 mL base layer containing 0.5% agar in 6-well plates. The plates were incubated for 14 days (SUIT-2) and 21 days (PANC-1) and then stained for 1 h with 1 ml of 0.02% crystal violet (Sigma-Aldrich), and colonies were counted according to sizes; <0.2 mm (small), 0.2–1 mm (medium) and >1 mm (large). Data represent average numbers with standard deviation bars (n = 3). The experiments have been repeated with similar result.
# [5] = tested on: SUIT-2 cells; assay: Soft agar colony formation assay, SUIT-2; format: cell-based, human; conditions: 14 days
# Description: as §2
# [6] = tested on: TNF-α induced NfkB signaling in NIH3T3 cells; assay: NFkB luciferase reporter assay in NIH3T3; format: cell-based; conditions: NIH3T3, 10 µM and 20 µM, 24 hours
# Description: Vectors were obtained from the following: GliBS-Luc reporter (gift from H. Sasaki), pBluescript (pBS) (Stratagene), FL-HA-GLI1 (Gli1) and Gli2-GFP (Gli2) (gifts from R. Toftgård), Super8XTOPFlash, and NFkB-luc (Panomics). 10 ng renilla luciferase (pRL-TK) (Promega) was used as a transfection control. HEK293 and NIH3T3 cells were seeded at 80,000 per well in 48-well plates on day 1, and were co-transfected on day 2 using a total of 0.4 µg plasmid per well mixed at 1∶3 in FUGENE6 according to manufacturer^'s instructions. On day 3, control medium and activating medium (50% L1 conditioned medium, 50% Shh conditioned medium or medium containing 10 ng/mL recombinant rcrTNF-α (R&D Systems)) +/− 10–20 µM MS-0022 were added, using DMSO as a control (the NFkB pathway inhibitor Bay11-7082 was used as a control in the NFkB assay). Samples were analyzed on day 4 or 5 using the Dual Luciferase assay kit according to manufacturer^'s instructions. Graphs display relative or fold reporter activity, and are calculated from a mean ratio of firefly reporter luminescence/pRL-TK luminescence with standard deviation error bars (n = 3). The experiments have been repeated with similar results.
# [7] = tested on: 58 kinases; assay: Millipore kinase diversity panel (whole panel); format: biochemical; conditions: 10 µM
# [8] = Compound concentration in mouse liver tissue; format: in vivo; conditions: C57BL, 5 mg/kg, 2 hours after IP administration
# [9] = tested on: PANC-1 xenograft; assay: PANC-1 subcutaneous xenograft in CB17/SCID mice; format: in vivo, mouse
# Description: as §1
# For PANC-1 xenografts, 4–6 week old CB17/SCID mice were injected with 5×10^6 PANC-1 (n = 6 per group) cells in 200 µl PBS subcutaneously on day 1. IP treatment with 50 mg/kg MS-0022 began when median tumor size reached 25 mm^2 (day 27). MS-0022 was pulverized using a pestle, and was mixed into a stable suspension in water containing 1% Tween 80 (Sigma-Aldrich). Mice were treated with MS-0022 or solvent for a period of 30 days after initiation in a 5 day injection 2 day pause scheme, and tumor size was measured throughout using calipers (mm^2). After 30 days the mice were sacrificed and tumors dissected and weighed. The PANC-1 xenograft endpoint was taken two days after the last compound treatment.
# [10] = QD, IP at 50 mg/kg, 5 day injection/2 day pause, end of treatment, vs control solvent
structure (smiles),measurement,setting,value
"Cc1cccn2cc(-c3ccc(NC(=O)c4ccccc4Br)cc3)nc12 [MS-0022, 2-bromo-N-(4-(8-methylimidazo[1,2-a]pyridin-2-yl)phenyl)benzamide]",Gli1 mRNA expression in Ptch−/− MEFs,[1],reduced Gli1 mRNA expression
same,"GLI1 mRNA levels, PANC-1",[2],without reducing GLI1 mRNA levels
same,"growth (MTS), PANC-1",[3],reduced growth
same,"soft agar colony formation, PANC-1",[4],"reduction in large (Figure 2C–D, and G) and medium sized colonies"
same,"soft agar colony formation, SUIT-2",[5],"reduction in large (Figure 2C–D, and G) and medium sized colonies"
same,TNF-α induced NfkB signaling,[6],nor did it block; also recorded: slight increase of NFkB signaling
same,inhibition of kinases of the diversity panel (in words),[7],did not significantly inhibit
same,concentration at 2 h,[8],244 ng/g
same,"reduction in tumor volume, PANC-1 xenograft",[9]; [10],38%
same,"reduction in tumor weight, PANC-1 xenograft",[9]; [10],33%
same,human (tumor) or mouse (stroma) Ptch1 or Gli1 mRNA levels in PANC-1 tumors,"[9]; endpoint of the experiment, 50 mg/kg IP",no statistically relevant difference
